From patent US4513008A, “Virucidal compositions and therapy” (The Vinoxen Company, Inc., priority 1982, dated 1985)
“Also recorded” adds a separate entry of the source.

How the values were obtained:
HSV-2 [1] = assay: In vivo mouse bioassay: intravaginal HSV-2 infection, topical treatment; parameters: species or system HSV-2 strain 333 in female Swiss Webster mice; key to Max. Lesion Score: 0: no clinical signs of vaginal infection; ±: slight perivaginal redness; perivaginal redness and swelling of 1-2 mm; perivaginal redness and swelling of 2-3 mm; perivaginal and perianal redness and swelling of 3-4 mm; perivaginal and perianal redness and swelling of 4 mm or more, with exudate; details: for # Infected, Day 14 / # of Deaths, Day 14: 10 animals/group
[2] = Guinea pig toxicity controls (sham-infected, topical treatment); assay type: in vivo, guinea pigs; details: for Toxicity Controls Max. Irrit. Score: 0 to 4 scale
Experimental: Drugs. The substances tested consisted of four bottles labelled "A", "B", "C", and "D" with no identifying key. The samples were: A, 0.1 mg/ml DHA (0.003 mmol/ml); B, 5% w/w ACV (0.22 mmol/ml); C, 1 mg/ml DHA (0.03 mmol/ml); and D, 10 mg/ml DHA ([…]). […] All were treated as light-sensitive compounds.
Experimental Protocol. The guinea pigs were infected by applying a virus-soaked swab intravaginally, with agitation, for 20 seconds. Toxicity control animals were similar pretreated using swabs soaked in sterile Puck's balanced salt solution. Treatment began 20 hr later, with the compound or placebo applied topically intravaginally, perivaginally, and perianally using cotton swabs soaked in the respective substance. Treatment continued three times daily (8 a.m., noon, 4 p.m.) for 7 days. Ten infected animals were used for each coded substance, with twenty used for virus controls. Five sham-infected animals were concomitantly treated with each coded substance to serve as toxicity controls. Two guinea pigs were held separately to serve as normal untreated controls.
Each animal was observed daily for survival for a total of 28 days. On days 5 through 8 post-virus inoculation, the genital area was carefully examined and signs of irritation in the toxicity controls and lesion severity in injected animals was scored on a 0 to 4 scale using the same scale as in the mouse bioassay. The results were scored as average daily lesion (ADL) scores for each group, and as mean vaginal lesion (MVL) scores, calculated as the mean of the ADL scores for days 5-8. The maximum mean score for the toxicity control animals was also determined.

HSV-2 [3] = assay: Separate experiments: speed of virus inhibition by DHA
[4] = Visually observed solubility in DMSO-HBSS; assay type: physicochemical; details: 1 mg in 1 ml of 70% DMSO-30% HBSS
Experimental: Vehicles. […] The DMSO-HBSS vehicle was selected based on the observed (visually) solubility of DHA in various DMSO-HBSS solutions. 1 mg DHA was soluble in 1 ml of 70% DMSO-30% HBSS.

CCC=CCC=CCC=CCC=CCC=CCC=CCCC(=O)O [DHA, 4,7,10,13,16,19 Docosahexaenoic Acid]
% Mortality (HSV-2 [1]; DMSO & High DHA (10 mg/ml)): 20%
Day of Maximum % Morbidity (HSV-2 [1]; DMSO & High DHA (10 mg/ml)): 7 days
Maximum % Morbidity (HSV-2 [1]; DMSO & High DHA (10 mg/ml)): 40%
Mean Day of Death (HSV-2 [1]; DMSO & High DHA (10 mg/ml)): 8.5 days
% Mortality (HSV-2 [1]; DMSO & Low DHA (1 mg/ml)): 30%
Day of Maximum % Morbidity (HSV-2 [1]; DMSO & Low DHA (1 mg/ml)): 7 days
Maximum % Morbidity (HSV-2 [1]; DMSO & Low DHA (1 mg/ml)): 40%
Mean Day of Death (HSV-2 [1]; DMSO & Low DHA (1 mg/ml)): 11.7 days
# Infected, Day 14 (HSV-2 [1]; High DHA 10 mg/ml in DMSO): 4
# of Deaths, Day 14 (HSV-2 [1]; High DHA 10 mg/ml in DMSO): 2
# Infected, Day 14 (HSV-2 [1]; High DHA 10 mg/ml in PEG): 5
# of Deaths, Day 14 (HSV-2 [1]; High DHA 10 mg/ml in PEG): 3
# Infected, Day 14 (HSV-2 [1]; Low DHA 1 mg/ml in DMSO): 4
# of Deaths, Day 14 (HSV-2 [1]; Low DHA 1 mg/ml in DMSO): 2
Max. Lesion Score (HSV-2 [1]; Low DHA 1 mg/ml in PEG): ±
# Infected, Day 14 (HSV-2 [1]; Low DHA 1 mg/ml in PEG): 1
# of Deaths, Day 14 (HSV-2 [1]; Low DHA 1 mg/ml in PEG): 0
% Mortality (HSV-2 [1]; Ointment & High DHA (10 mg/ml)): 30%
Day of Maximum % Morbidity (HSV-2 [1]; Ointment & High DHA (10 mg/ml)): 7 days
Maximum % Morbidity (HSV-2 [1]; Ointment & High DHA (10 mg/ml)): 50%
Mean Day of Death (HSV-2 [1]; Ointment & High DHA (10 mg/ml)): 11.7 days
% Mortality (HSV-2 [1]; Ointment & Low DHA (1 mg/ml)): 0%
Day of Maximum % Morbidity (HSV-2 [1]; Ointment & Low DHA (1 mg/ml)): 6 days
Maximum % Morbidity (HSV-2 [1]; Ointment & Low DHA (1 mg/ml)): 10%
Mean Day of Death (HSV-2 [1]; Ointment & Low DHA (1 mg/ml)): > 14 days
efficacy in mice in words (HSV-2 [1]; topical, HSV-2 infected mice): effective virucidal activity against HSV-2, especially the low dose ointment preparation; also recorded: highly effective in comparison with ACV in reducing lesions and in reducing mortality rates in mice; also recorded: a low dose of DHA in the particular ointment vehicle used for test purposes appeared to have a higher activity than a high dose of the same material in the same vehicle
Toxicity Controls Surv/Total ([2]; A: 0.1 mg/ml DHA in PEG-1000): 5/5
Toxicity Controls Max. Irrit. Score ([2]; A: 0.1 mg/ml DHA in PEG-1000): 0.0
Toxicity Controls Surv/Total ([2]; C: 1 mg/ml DHA in PEG-1000): 5/5
Toxicity Controls Max. Irrit. Score ([2]; C: 1 mg/ml DHA in PEG-1000): 0.0
Toxicity Controls Surv/Total ([2]; D: 10 mg/ml DHA in PEG-1000): 5/5
Toxicity Controls Max. Irrit. Score ([2]; D: 10 mg/ml DHA in PEG-1000): 0.0
virus inhibited (HSV-2 [3]; within 30 seconds of contact): more than 98%
virus inhibited (HSV-2 [3]; within 30 minutes of contact): > 99.99%
solubility [4]: soluble
